Measurements published in US5712274A, “Thienotriazolodiazepine compounds and their pharmaceutical use” (Yoshitomi Pharmaceutical Industries, Ltd., priority 1995, dated 1998).
Where two headings read alike, the source gives them in different places.

Assays:
CD11b = assay: Effect on CD11b expression in human histiocytic leukemia cell line, U937 cells (PDB-induced); format: cell-based; conditions: U-937, 72 h, read-out: Inhibitory effect on CD11b expression (IC50)
Protocol: Effect on CD11b expression human histiocytic leukemia cell line, U937 cells
Effect on the expression of CD11b antigen, which is the α chain of an adhesion molecule, Mac-1 expressing on the surface of leukocytgic cells, was investigated. U937 cells were suspended in RPMI1640 medium containing 20% fetal calf serum (FCS), plated with phorbol 12,13-dibutyrate (PDB, 10 ng/ml) into 96-well filtration plates, and cultured for 3 days at 37° C. in 5% CO2. After the cells were washed once with RPMI1640 medium, rat anti-human CD11b antibody (2 μg/ml) was added to each well and the plates were incubated for 1 hr on ice. After the cell were washed twice, peroxidase-conjugated anti-rat immunoglobulin antibody (1 μg/ml) was added, and the cells were incubated for 1 hr on ice. After the cells were washed 3 times, substrate for peroxidase (o-phenylenediamine) was added. After the plates were stood for 15 min at room temperature, absorbance at 490 nm was measured with a 96-well microplate reader and was regarded as a indicator of CD11b antigen expression.

VCAM-1 = assay: Inhibitory effect on TNF-α-induced expression of VCAM-1 in HUVECs; format: cell-based; conditions: Homo sapiens, HUVEC, read-out: Inhibitory effect (IC50) on CAM-1 expression
Protocol: (§1) Inhibitory effect on expression of VCAM-1 and ELAM-1 in human umbilical vein-derived endothelial cells (HUVECs)
(§2) HUVECs were suspended in 199 medium containing 20% FCS, 20 μg/ml endothelial cell growth factor derived from bovine brain, and 100 μg/ml heparin, plated into 96-well microculture plates coated with collagen, and cultured at 37° C. in 5% CO2. When cells were grown to confluence, the cells received tumour necrosis factor (TNF)-α (20 U/ml for VCAM-1 expression, 100 U/ml for ELAM-1 expression) and cultured for 5 hr. After the cells were washed once with 199 medium, mouse anti-human VCAM-1 monoclonal antibody (2 μg/ml) or rat anti-human ELAM-1 monoclonal antibody (2 μg/ml) was added, and the cells were incubated for 1 hr at room temperature. After the cells were washed twice, peroxidase-conjugated anti-mouse immunoglobulin antibody or anti-rat immunoglobulin antibody was added, and the cells were incubated for 1 hr at room temperature. After the cells were washed 3 times, 2,2'-azino-bis(3-ethylbenzothiazolone-6-sulfonic acid) was added. After the plates were stood for 15 min at room temperature, absorbance at 405 nm with a reference wave length of 490 nm was measured with a 96-well microplate reader and was regarded as a indicator of VCAM-1 or ELAM-1 expression.

ELAM-1 = assay: Inhibitory effect on TNF-α-induced expression of ELAM-1 in HUVECs; format: cell-based; conditions: Homo sapiens, HUVEC, read-out: Inhibitory effect (IC50) on ELAM-1 expression
Protocol: as §1, §2

[1] = system: oxazolone-induced ear edema; assay: Effect on oxazolone-induced ear edema in mice; format: in vivo; conditions: sensitized mice, 24 hr after challenge
Protocol: Effect on oxazolone-induced ear edema in mice.
Mice were sensitized by applying 50 μl of oxazolone solution (50 mg/ml in acetone) to their shaved abdomen on day 0. On day 7, 5 μl of oxazolone solution was applied to each surface of the right ear. After 24 hr (day 8), the right and left ears were cut off with a puncher of 6 mm in diameter and weighed with an electronic reading balance. The difference in weight between the oxazolone-treated ear (right) and untreated ear (left) was taken to reflect the extent of ear edema. Test compounds were suspended in 0.5% hydroxypropylmethycellulose solution and administered p.o. (0.1 ml/10 g body weight) on days 0 to 4 (once a day) and day 7 (twice a day).

[2] = system: thioglycollate (TG) medium-induced infiltration of leukocytes; assay: Effect on thioglycollate (TG) medium-induced infiltration of leukocytes; format: in vivo, BALB/c mice; conditions: TG medium 1 ml, day 4
Protocol: Effect on thioglycollate (TG) medium-induced infiltration of leukocytes
One ml of TG medium was injected into peritoneal cavity of BALB/c mice on day 0. On day 4, leukocytes infiltrating into the peritoneal cavity were collected with 3 ml of phosphatebuffered saline containing 0.02% EDTA and the density of leukocytes (cells/ml) was counted with an automatic blood cell counter. Total number of leukocytes (X) was calculated from the density of leukocytes (A) with the following formula.
Test compounds were suspended in 0.5% hydroxypropylmethyl-cellulose solution and administered p.o. (0.1 ml/10 g body weight) on days 0 to 3.

glomerulonephritis = assay: Effect on glomerulonephritis in mice (anti-GBM antiserum); format: in vivo, female C57BL/6 mice; conditions: 12 days after anti-GBM antiserum, 0-5 points
Protocol: Effect on glomerulonephritis in mice
Rabbit immunoglobulin G solution (4 mg/ml in saline) was mixed with Freund's complete adjuvant at a ratio of 1:1 and the emulsion was prepared. The emulsion was injected into peritoneal cavity of female C57BL/6 mice (0.25 ml/mouse). After 5 days, rabbit anti-mouse glomerular basement membrane (GBM) antiserum obtained by the method of Nagai et al. (Japan. J. Pharmacol., 32, 1117, 1982) was administered i.v. (0.08 ml/mouse). […] Test compounds were suspended in 0.5% hydroxypropylmethylcellulose (HPMC) solution and administered p.o. (0.1 ml/10 g body weight) for 13 days beginning on the day of anti-GBM ant-serum injection.

[3] = system: antigen induced Eosinophils accumulation into lungs; assay: Effect on antigen induced eosinophils accumulation into lungs in actively sensitized guinea pigs; format: in vivo, male Dunkin-Hartley guinea pigs; conditions: 30 mg/kg p.o., BALF 24 h after antigen exposure
Protocol: Effect on antigen induced Eosinophils accumulation into lungs in actively sensitized guinea pigs
Male Dunkin-Hartley guinea pigs (4W, Japan SLC, Inc.) were used throughout this study.
Sensitized animals were orally administered (p.o.) with compound or solvent (0.5% hydroxymethylcellulose) 30 min. before final sensitization, 30 min. before antigen exposure and 4.5 h after antigen exposure.
Egg albumin (EA, 10 μg) was added to AI(OH)3 (10 mg) in sterile physiological saline (0.5 ml) and mixed in a blender. This mixture was injected intraperitoneally into recipients. And after 14 days and 21 days, the procedure was repeated. Seven days after the final sensitization procedure, Mepyramine 10 mg/kg was injected intraperitoneally into the sensitized animals. After 30 min., the animals were exposed to aerosol of 1% EA in sterile physiological saline for 5 min.
24 h after antigen exposure, the animals were killed by exsanguination and tracheae were cannulated. And the lungs were lavaged three times with 10 ml of sterile physiological saline. Lavage fluid (BALF) was centrifuged (800 rpm for 10 min. at 4° C.) and the cell pellet was resuspended in 10 ml of sterile physilolgical saline and total cell numbers in BALF were counted in a hemocytometer (MEK 4200, Nihon-kohden, Ltd.). Differential cell counts were made from centrifuged preparations stained with May-Giemsa stain.

TNBS-induced colitis = assay: Effect on TNBS-induced colitis model in rats (intrarectal administration); format: in vivo, SD rats; conditions: 7 days
Protocol: Effect on trinitrobenzenesufonec acid (TNBS)-induced colitis model in rats.
Colitis was induced by intrarectal injection of TNBS solution (60 mg/ml in 50% EtOH, 500 μl/rat) to SD rats. Seven days later, rats were sacrificed, and large intestine (8 cm from anus) was cut off and weighed. Myeloperoxidase (MPO) activity in the intestinal tissue was measured as follows and taken as an indicator of leukocyte infiltration: the intestinal tissue was homogenized and a cycle of freeze-thawing of the tissue was repeated 3 times. The supernatant obtained by centrifugation was assayed for MPO activity with substrate for peroxidase (o-phenylenediamine). MPO activity in the supernatant was calculated with the commercial MPO as a standard. The increases in intestinal weight and MPO activity as described above were taken as indicators of colitis. Test compounds were suspended in 0.5% hydroxypropylmethylcellulose solution and administered intrarectally (o.2 ml/rat) for 5 days beginning on the day of TNBS injection.

[4] = system: lipopolysaccharide (LPS)-induced adhesion of leukocytes; assay: Effect on lipopolysaccharide (LPS)-induced adhesion of leukocytes; format: in vivo, BALB/c mice; conditions: 6 hr after LPS
Text: Effect on lipopolysaccharide (LPS)-induced adhesion of leukocytes
It has been reported that, by the administration of LPS to mice, an adhesion molecule, Mac-1-dependent leukocyte adhesion is induced, the leukocytes infiltrate into lung, liver and so on, and in result the number of peripheral blood leukocytes reduces (Morisaki et al., Clin. Immunol. Immunopathol., 61, 365-375, 1991). The effect on LPS-induced leukocyte adhesion was investigated by taking the reduction of peripheral blood leukocytes as an indicator of leukocyte adhesion.
LPS solution (50 ng/ml in saline, 0,5 ml/mouse) was injected into peritoneal cavity of BALB/c mice on day 0. Six hr after the LPS injection, the number of peripheral blood leukocytes was counted with an automatic blood cell counter. Test compounds were suspended in 0.5% hydroxypropylmethylcellulose solution and administered p.o. (0.1 ml/10 g body weight) on days -4 to 0.

SMILES	Increase in ear weight (mean ± S.D.) ([1]; 1 mg/kg p.o.)	Total number of leukocytes (mean ± S.D.) ([2]; 0.03 mg/kg/day p.o.)	Total number of leukocytes (mean ± S.D.) ([2]; 0.1 mg/kg/day p.o.)	Total number of leukocytes (mean ± S.D.) ([2]; 0.3 mg/kg/day p.o.)	Score (mean ± S.D.) of protein level in urine (glomerulonephritis; 1 mg/kg/day p.o.)	Score (mean ± S.D.) of protein level in urine (glomerulonephritis; 3 mg/kg/day p.o.)	Intestinal weight (mean ± S.D.) (TNBS-induced colitis; 0.01 mg/site intrarectally)	MPO activity (mean ± S.D.) (TNBS-induced colitis; 0.01 mg/site intrarectally)	Intestinal weight (mean ± S.D.) (TNBS-induced colitis; 0.1 mg/site intrarectally)	MPO activity (mean ± S.D.) (TNBS-induced colitis; 0.1 mg/site intrarectally)	Intestinal weight (mean ± S.D.) (TNBS-induced colitis; 1 mg/site intrarectally)	MPO activity (mean ± S.D.) (TNBS-induced colitis; 1 mg/site intrarectally)	also measured
Cc1sc2c(c1C)C(c1ccc(Cl)cc1)=N[C@@H](CC(=O)NCCO)c1nnc(C)n1-2 [Example 2, (S)-N-(2-hydroxyethyl)-4-(4-chlorophenyl)-2,3,9-trimethyl-6H-thieno[3,2-f][1,2,4]triazolo[4,3-a][1,4]diazepine-6-acetamide 1/4 hydrate]	14.2 ± 0.4 mg	1064 ± 359 × 10^4	594 ± 302 × 10^4	570 ± 203 × 10^4	3.25 ± 0.16	2.44 ± 0.53	–	–	–	–	–	–	IC50 (CD11b; U937 cells, PDB 10 ng/ml, 3 days): 150 nM; IC50 (VCAM-1; HUVECs, TNF-α 20 U/ml, 5 hr): 37 nM; IC50 (ELAM-1; HUVECs, TNF-α 100 U/ml, 5 hr): 79 nM; Increase in ear weight (mean ± S.D.) ([1]; 0.3 mg/kg p.o.): 14.3 ± 1.5 mg; Number of eosinophils [3]: 11.8 ± 3.8 × 10^6
Cc1sc2c(c1C)C(c1ccc(Cl)cc1)=N[C@@H](CC(=O)Nc1ccc(O)cc1)c1nnc(C)n1-2 [Example 3, (S)-N-(4-hydroxyphenyl)-4-(4-chlorophenyl)-2,3,9-trimethyl-6H-thieno[3,2-f][1,2,4]triazolo[4,3-a][1,4]diazepine-6-acetamide]	–	–	–	–	–	–	501.5 ± 78.3 mg	0.716 ± 0.158 U/ml	472.0 ± 43.4 mg	0.654 ± 0.109 U/ml	460.8 ± 52.3 mg	0.676 ± 0.172 U/ml	–
Cc1sc2c(c1C)C(c1ccc(Cl)cc1)=N[C@@H](CC(=O)Nc1ccc(N)cc1)c1nnc(C)n1-2 [Example 4, (S)-N-(4-aminophenyl)-4-(4-chlorophenyl)-2,3,9-trimethyl-6H-thieno[3,2-f][1,2,4]triazolo[4,3-a][1,4]diazepine-6-acetamide]	–	–	–	–	–	–	490.8 ± 89.9 mg	0.703 ± 0,313 U/ml	488.1 ± 24.0 mg	0.511 ± 0.103 U/ml	511.8 ± 98.5 mg	0.488 ± 0.103 U/ml	–
Cc1sc2c(c1C)C(c1ccc(Cl)cc1)=N[C@@H](CC(=O)Nc1cccnc1)c1nnc(C)n1-2.Cl [Example 5, (S)-N-(3-pyridyl)-4-(4-chlorophenyl)-2,3,9-trimethyl-6H-thieno[3,2-f][1,2,4]triazolo[4,3-a][1,4]diazepine-6-acetamide hydrochloride]	15.2 ± 0.8 mg	1221 ± 239 × 10^4	990 ± 327 × 10^4	596 ± 165 × 10^4	3.44 ± 0.88	2.22 ± 0.44	–	–	–	–	–	–	IC50 (CD11b): 260 nM; IC50 (VCAM-1; 5 h): 4.5 nM; IC50 (ELAM-1; 5 h): 14 nM; Increase in ear weight (mean ± S.D.) ([1]; 3 mg/kg p.o.): 14.0 ± 0.6 mg; Increase in ear weight (mean ± S.D.) ([1]; 10 mg/kg p.o.): 13.3 ± 0.5 mg; Number of peripheral blood leukocytes (mean ± S.D.) ([4]; 1 mg/kg/day p.o.): 46 ± 8 × 100/μl; Number of peripheral blood leukocytes (mean ± S.D.) ([4]; 3 mg/kg/day p.o.): 69 ± 18 × 100/μl; Number of peripheral blood leukocytes (mean ± S.D.) ([4]; 10 mg/kg/day p.o.): 103 ± 16 × 100/μl
